The values that follow come from patent US10117821B2, “Topical lightening composition and methods of use thereof” (Avon Products, Inc., priority 2013, dated 2018).

Experiment [1] deals with MELANODERM™ (MEL-300-B) human skin model. The experiment can be described thus: Melanin levels in MELANODERM 3D human skin model. It is filed as cell-based. The conditions noted are these: vs water vehicle control. Here is the method:
The effect of 3,3′-thiodipropanoic acid or Thiodipropionic acid (TDPA) and Nicotinamide on melanin levels was investigated using a MELANODERM™ (MEL-300-B, MatTek Corp., Ashland, Mass.) human skin model. MELANODERM™ is a viable reconstituted three-dimensional human skin equivalent containing melanocytes derived from African-American donors. Tissues were maintained in culture medium EPI-100-NMM-113 at 37° C. as recommended by the manufacturer.
TDPA was dissolved in water to a final concentration of 1.0% (w/v). Nicotinamide was dissolved in the culture media to a final concentration of 0.1% (w/v). 25 μl of the TDPA solution was applied topically to the MELANODERM™ tissue while 0.1% Nicotinamide containing culture medium was added on days 1, 2, 4, 7, 9, and 11. Control tissues were treated with water vehicle only. The tissue was treated with both active lightening agents at “saturated concentration,” which is the highest concentration of treatment that is not toxic to the system.
On Day 14, tissues were collected and homogenized in a buffer containing 1% SDS, 50 mM EDTA, and 10 mM Tris, pH 6.8. To each homogenate, protease K (5 mg/ml) was added and incubated overnight at 45° C. Additional protease K was added and incubated for 4 hours at 45° C., followed by the addition of 0.5M sodium carbonate and 30% H2O2 and incubation at 80° C. for 30 minutes. The samples were cooled down to room temperature, and extracted with chloroform/methanol (2:1). After centrifugation at 10,000 g for 10 minutes, absorbance of the top phase was measured at 450 nm. Percent change in melanin levels in treated tissue was calculated relative to control.
The effect of TDPA and Soybean Trypsin Inhibitor (STI) on melanin levels was investigated using the MELANODERM™ human skin model according to the methods described in Example 1.

Another experiment deals with B16 mouse melanoma cells. The experiment can be described thus: Melanin synthesis in B16 melanoma cell assay, normalized to MTT cell viability. It is filed as cell-based. The following applies: 7 days, vs water vehicle control, 6 replicates. Here is the method: The effects of 3,3′-thiodipropanoic acid and Kojic acid on melanin levels were determined by performing assays using B16 melanoma cells. These cells are known to constitutively produce melanin and are a commonly utilized and accepted model system for monitoring the inhibition of melanin synthesis.
The B16 mouse melanoma cells were seeded (ATCC, cat. #: CRL-6475) into 96-well tissue culture-treated plates (BD Falcon) and treated with test actives or controls in DMEM without phenol red (Mediatech; cat. #: 17-205-CV). The cells were examined for their ability to modulate pigment formation. […] Tests were performed in 6 replicates each. Following the treatment period, the level of pigment produced or melanin synthesized was quantified by reading the absorbance at 540 nm using a standard microplate reader (Tecan Group Ltd.).
After quantifying the amount of melanin, cell viability was determined using the MTT conversion method. […] After quantifying the amount of melanin pigment produced, the cells were exposed to MTT dye solution (1 mg/ml) for two to three hours. […] MTT dye uptake and conversion by viable cells were determined by measuring the extracted formazan at 570 nm using a microplate reader. Total pigmentation was calculated, normalized to cell viability values and expressed as the average percent change in melanin level relative to control of sextuplicates performed.

Marks after values point to notes of the source that are not given here.

For the molecule `O=C(O)CCSCCC(=O)O` [TDPA, 3,3′-thiodipropionic acid], the “% CHANGE IN MELANIN” value is reported as −10%* in experiment [1] (Example 1, 1% (w/v) in water, 25 μl topical, Day 14, average of three tissues); −9.1% in experiment [1] (Example 3, 1%, methods of Example 1); −27.4%* with B16 mouse melanoma cells (0.1% final concentration).

With `O=c1cc(CO)occ1O` [Kojic Acid, Kojic acid (5-hydroxy-4-pyran-4-one-2-methyl), reference compound], the “% CHANGE IN MELANIN” value in the experiment with B16 mouse melanoma cells (0.01% final concentration) was −47.6%*.

On to `NC(=O)c1cccnc1` [Nicotinamide, nicotinamide (3-pyridinecarboxamide), reference compound], for which the “% CHANGE IN MELANIN” value in experiment [1] (Example 1, 0.1% (w/v) in culture medium, Day 14, average of three tissues) is −16%*.

B1: STI: Soybean Trypsin Inhibitor (STI), a known melanosome transfer inhibitor (protein, UniProt P01070 25-205, looked up)
Trypsin inhibitor A: DFVLDNEGNPLENGGTYYILSDITAFGGIRAAPTGNERCPLTVVQSRNELDKGIGTIISSPYRIRFIAEGHPLSLKFDSFAVIMLCVGIPTEWSVVEDLPEGPAVKIGENKDAMDGWFRLERVSDDEFNNYKLVFCPQQAEDDKCGDIGISIDHDDGTRRLVVSKNKPLVVQFQKLDKESL
Take B1: in experiment [1] (Example 3, 0.1%, methods of Example 1), the “% CHANGE IN MELANIN” value is listed as −8.9%.
